Test results as given in ChEMBL document CHEMBL1201862, “PubChem BioAssay data set” (2004).
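96-well plates; 48 h exposure; 5 concentrations. Endpoints by linear interpolation between flanking doses. Not reached: highest tested concentration assigned. GI50 is the concentration that inhibits growth by half.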 Calls of active or inactive are those of the source. Cut-off read from the data, not from the text of the source: active = GI50 up to about 1.1 µM and inactive = higher.

Tests used:
Experiment in all cases: NCI anticancer screen, dose series, 48 h
786-0 = system: 786-0
A498 = system: A498
HCT-116 = system: HCT-116
HOP-92 = system: HOP-92
K562 = system: K562
LOX IMVI = system: LOX IMVI
M14 = system: M14
MCF7 = system: MCF7
MDA-MB-435 = system: MDA-MB-435
Malme-3M = system: Malme-3M
NCI-H23 = system: NCI-H23
NCI-H460 = system: NCI-H460
NCI-H522 = system: NCI-H522
NCI/ADR-RES = system: NCI/ADR-RES
PC-3 = system: PC-3
RPMI-8226 = system: RPMI-8226
SK-MEL-2 = system: SK-MEL-2
SNB-19 = system: SNB-19
SNB-75 = system: SNB-75
UACC-257 = system: UACC-257

Measured: GI50

Cc1c2c(OCC3CCCCO3)nn(C)c(=O)c2c(C)n1-c1ccccc1 (stereo not given)
inactive: 786-0 17.2 µM | A498 14.9 µM | HCT-116 17 µM | HOP-92 18 µM | K562 38.8 µM | LOX IMVI 17.7 µM | M14 19.1 µM | MCF7 14.9 µM | MDA-MB-435 18.3 µM | Malme-3M 18.7 µM | NCI-H23 20 µM | NCI-H460 14.7 µM | NCI-H522 17 µM | NCI/ADR-RES 21.3 µM | PC-3 19.7 µM | RPMI-8226 31.3 µM | SK-MEL-2 24.1 µM | SNB-19 21.7 µM | SNB-75 13 µM | UACC-257 18.6 µM
